# Assay results reported in ChEMBL document CHEMBL1145355, “From selective substrate analogue factor Xa inhibitors to dual inhibitors of thrombin and factor Xa. Part 3” (Bioorg Med Chem Lett, 2007).
# Target: Coagulation factor X (Homo sapiens, UniProt P00742)
# Sequence (P00742 41-179 limits assumed): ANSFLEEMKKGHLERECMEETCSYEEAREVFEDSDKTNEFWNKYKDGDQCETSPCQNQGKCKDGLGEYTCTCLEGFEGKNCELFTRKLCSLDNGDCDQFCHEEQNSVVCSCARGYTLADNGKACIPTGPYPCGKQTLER
# Sequence (P00742 235-488 limits assumed): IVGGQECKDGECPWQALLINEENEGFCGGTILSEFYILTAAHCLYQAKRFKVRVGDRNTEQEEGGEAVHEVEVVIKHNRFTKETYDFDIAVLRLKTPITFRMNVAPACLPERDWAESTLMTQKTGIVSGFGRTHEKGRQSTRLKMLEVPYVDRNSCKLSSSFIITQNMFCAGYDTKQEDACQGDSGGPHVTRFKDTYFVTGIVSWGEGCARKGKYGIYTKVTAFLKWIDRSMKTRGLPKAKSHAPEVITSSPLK
row,SMILES,Ki [µM]
1,O=C(CNC(=O)[C@@H](CCc1cccc[n+]1[O-])NS(=O)(=O)Cc1ccccc1)NCCc1ccncc1,3.9
2,O=C(CNC(=O)[C@@H](CCc1cccc[n+]1[O-])NS(=O)(=O)Cc1ccccc1)NCc1cccc(Cl)c1,0.0033
3,NCc1ccccc1CNC(=O)CNC(=O)C(CCc1cccc[n+]1[O-])NS(=O)(=O)Cc1ccccc1 (stereo not drawn),0.032
4,O=C(CNC(=O)C(CCc1cccc[n+]1[O-])NS(=O)(=O)Cc1ccccc1)NCc1ccc(Cl)s1 (stereo not drawn),0.053
5,O=C(CNC(=O)C(CCc1cccc[n+]1[O-])NS(=O)(=O)Cc1ccccc1)NCc1cccs1 (stereo not drawn),0.052
6,CC(C)OC(=O)CS(=O)(=O)NC(CCc1cccc[n+]1[O-])C(=O)NCC(=O)NCc1cc(Cl)ccc1CN (stereo not drawn),0.00076
7,N=C(N)c1ccc(CNC(=O)CNC(=O)[C@@H](CCc2cccc[n+]2[O-])NS(=O)(=O)Cc2ccccc2)cc1,0.00032
8,COC(=O)C(=O)NC(CCc1cccc[n+]1[O-])C(=O)NCC(=O)NCc1cc(Cl)ccc1CN (stereo not drawn),0.0049
9,O=C(CNC(=O)C(CCc1cccc[n+]1[O-])NS(=O)(=O)Cc1ccccc1)NCc1cc(Cl)ccc1Cl (stereo not drawn),0.00255

# Target: Trypsin (Homo sapiens, UniProt P07477+P07478+P35030)
# Assay: Inhibition of trypsin
# Format: protein assay
row,SMILES,Ki [µM]
1,CCCCCCOC(=O)CN[C@H](CCc1cccc[n+]1[O-])C(=O)N1CCC[C@H]1C(=O)NCc1cc(Cl)ccc1CN,> 0.5
2,NCc1ccc(Cl)cc1CNC(=O)[C@H](CCC(=O)O)NC(=O)C(CCc1cccc[n+]1[O-])NS(=O)(=O)Cc1ccccc1 (stereo partly drawn),> 0.5
3,C[C@H](NC(=O)[C@@H](CCc1cccc[n+]1[O-])NS(=O)(=O)Cc1ccccc1)C(=O)NCc1cc(Cl)ccc1CN,> 0.5
4,NCc1ccc(Cl)cc1CNC(=O)[C@H](CO)NC(=O)C(CCc1ccccn1)NS(=O)(=O)Cc1ccccc1 (stereo partly drawn),> 0.5
5,NCc1ccc(Cl)cc1CNC(=O)[C@@H]1CCCN1C(=O)[C@@H](CCc1cccc[n+]1[O-])NCC(=O)OC1CCCCC1,> 0.5
6,NCc1ccc(Cl)cc1CNC(=O)CNC(=O)C(CCc1cccc[n+]1[O-])NC(=O)CC(=O)O (stereo not drawn),> 0.5
7,O=C(CNC(=O)[C@@H](CCc1cccc[n+]1[O-])NS(=O)(=O)Cc1ccccc1)NCCc1ccncc1,> 0.5
8,O=C(CNC(=O)[C@@H](CCc1cccc[n+]1[O-])NS(=O)(=O)Cc1ccccc1)NCc1cccc(Cl)c1,> 0.5
9,NCc1ccccc1CNC(=O)CNC(=O)C(CCc1cccc[n+]1[O-])NS(=O)(=O)Cc1ccccc1 (stereo not drawn),> 0.5
10,O=C(CNC(=O)C(CCc1cccc[n+]1[O-])NS(=O)(=O)Cc1ccccc1)NCc1ccc(Cl)s1 (stereo not drawn),> 0.5
11,O=C(CNC(=O)C(CCc1cccc[n+]1[O-])NS(=O)(=O)Cc1ccccc1)NCc1cccs1 (stereo not drawn),> 0.5
12,CC(C)OC(=O)CS(=O)(=O)NC(CCc1cccc[n+]1[O-])C(=O)NCC(=O)NCc1cc(Cl)ccc1CN (stereo not drawn),> 0.5
13,N=C(N)c1ccc(CNC(=O)CNC(=O)[C@@H](CCc2cccc[n+]2[O-])NS(=O)(=O)Cc2ccccc2)cc1,0.0063
14,COC(=O)C(=O)NC(CCc1cccc[n+]1[O-])C(=O)NCC(=O)NCc1cc(Cl)ccc1CN (stereo not drawn),> 0.5
15,NCc1ccc(Cl)cc1CNC(=O)[C@H](CO)NC(=O)[C@@H](CCc1cccc[n+]1[O-])NS(=O)(=O)Cc1ccccc1,> 0.5
16,NCc1ccc(Cl)cc1CNC(=O)[C@@H]1CCCN1C(=O)[C@@H](CCc1cccc[n+]1[O-])NS(=O)(=O)Cc1ccccc1,0.019
17,O=C(CNC(=O)C(CCc1cccc[n+]1[O-])NS(=O)(=O)Cc1ccccc1)NCc1cc(Cl)ccc1Cl (stereo not drawn),> 0.5
18,COC(=O)Cc1ccc(CS(=O)(=O)NC(CCc2cccc[n+]2[O-])C(=O)NCC(=O)NCc2cc(Cl)ccc2CN)cc1 (stereo not drawn),> 0.5

# Target: Urokinase-type plasminogen activator (Homo sapiens, UniProt P00749)
# Assay: Inhibition of uPA
row,SMILES,Ki [µM]
1,CCCCCCOC(=O)CN[C@H](CCc1cccc[n+]1[O-])C(=O)N1CCC[C@H]1C(=O)NCc1cc(Cl)ccc1CN,> 5
2,NCc1ccc(Cl)cc1CNC(=O)[C@H](CCC(=O)O)NC(=O)C(CCc1cccc[n+]1[O-])NS(=O)(=O)Cc1ccccc1 (stereo partly drawn),> 5
3,C[C@H](NC(=O)[C@@H](CCc1cccc[n+]1[O-])NS(=O)(=O)Cc1ccccc1)C(=O)NCc1cc(Cl)ccc1CN,> 5
4,NCc1ccc(Cl)cc1CNC(=O)[C@H](CO)NC(=O)C(CCc1ccccn1)NS(=O)(=O)Cc1ccccc1 (stereo partly drawn),> 5
5,NCc1ccc(Cl)cc1CNC(=O)[C@@H]1CCCN1C(=O)[C@@H](CCc1cccc[n+]1[O-])NCC(=O)OC1CCCCC1,> 5
6,NCc1ccc(Cl)cc1CNC(=O)CNC(=O)C(CCc1cccc[n+]1[O-])NC(=O)CC(=O)O (stereo not drawn),> 5
7,O=C(CNC(=O)[C@@H](CCc1cccc[n+]1[O-])NS(=O)(=O)Cc1ccccc1)NCCc1ccncc1,> 5
8,O=C(CNC(=O)[C@@H](CCc1cccc[n+]1[O-])NS(=O)(=O)Cc1ccccc1)NCc1cccc(Cl)c1,> 5
9,NCc1ccccc1CNC(=O)CNC(=O)C(CCc1cccc[n+]1[O-])NS(=O)(=O)Cc1ccccc1 (stereo not drawn),> 5
10,O=C(CNC(=O)C(CCc1cccc[n+]1[O-])NS(=O)(=O)Cc1ccccc1)NCc1ccc(Cl)s1 (stereo not drawn),> 5
11,O=C(CNC(=O)C(CCc1cccc[n+]1[O-])NS(=O)(=O)Cc1ccccc1)NCc1cccs1 (stereo not drawn),> 5
12,CC(C)OC(=O)CS(=O)(=O)NC(CCc1cccc[n+]1[O-])C(=O)NCC(=O)NCc1cc(Cl)ccc1CN (stereo not drawn),> 5
13,COC(=O)C(=O)NC(CCc1cccc[n+]1[O-])C(=O)NCC(=O)NCc1cc(Cl)ccc1CN (stereo not drawn),> 5
14,NCc1ccc(Cl)cc1CNC(=O)[C@H](CO)NC(=O)[C@@H](CCc1cccc[n+]1[O-])NS(=O)(=O)Cc1ccccc1,> 5
15,NCc1ccc(Cl)cc1CNC(=O)[C@@H]1CCCN1C(=O)[C@@H](CCc1cccc[n+]1[O-])NS(=O)(=O)Cc1ccccc1,> 5
16,O=C(CNC(=O)C(CCc1cccc[n+]1[O-])NS(=O)(=O)Cc1ccccc1)NCc1cc(Cl)ccc1Cl (stereo not drawn),> 5
17,COC(=O)Cc1ccc(CS(=O)(=O)NC(CCc2cccc[n+]2[O-])C(=O)NCC(=O)NCc2cc(Cl)ccc2CN)cc1 (stereo not drawn),> 5

# Target: not listed separately
# Assay: Inhibition of Plasmin
# Design: species or system Homo sapiens
row,SMILES,Ki [µM]
1,CCCCCCOC(=O)CN[C@H](CCc1cccc[n+]1[O-])C(=O)N1CCC[C@H]1C(=O)NCc1cc(Cl)ccc1CN,> 5
2,NCc1ccc(Cl)cc1CNC(=O)[C@H](CCC(=O)O)NC(=O)C(CCc1cccc[n+]1[O-])NS(=O)(=O)Cc1ccccc1 (stereo partly drawn),> 5
3,C[C@H](NC(=O)[C@@H](CCc1cccc[n+]1[O-])NS(=O)(=O)Cc1ccccc1)C(=O)NCc1cc(Cl)ccc1CN,> 5
4,NCc1ccc(Cl)cc1CNC(=O)[C@H](CO)NC(=O)C(CCc1ccccn1)NS(=O)(=O)Cc1ccccc1 (stereo partly drawn),> 5
5,NCc1ccc(Cl)cc1CNC(=O)[C@@H]1CCCN1C(=O)[C@@H](CCc1cccc[n+]1[O-])NCC(=O)OC1CCCCC1,> 5
6,NCc1ccc(Cl)cc1CNC(=O)CNC(=O)C(CCc1cccc[n+]1[O-])NC(=O)CC(=O)O (stereo not drawn),> 5
7,O=C(CNC(=O)[C@@H](CCc1cccc[n+]1[O-])NS(=O)(=O)Cc1ccccc1)NCCc1ccncc1,> 5
8,O=C(CNC(=O)[C@@H](CCc1cccc[n+]1[O-])NS(=O)(=O)Cc1ccccc1)NCc1cccc(Cl)c1,> 5
9,NCc1ccccc1CNC(=O)CNC(=O)C(CCc1cccc[n+]1[O-])NS(=O)(=O)Cc1ccccc1 (stereo not drawn),> 5
10,O=C(CNC(=O)C(CCc1cccc[n+]1[O-])NS(=O)(=O)Cc1ccccc1)NCc1ccc(Cl)s1 (stereo not drawn),> 5
11,O=C(CNC(=O)C(CCc1cccc[n+]1[O-])NS(=O)(=O)Cc1ccccc1)NCc1cccs1 (stereo not drawn),> 5
12,CC(C)OC(=O)CS(=O)(=O)NC(CCc1cccc[n+]1[O-])C(=O)NCC(=O)NCc1cc(Cl)ccc1CN (stereo not drawn),> 5
13,COC(=O)C(=O)NC(CCc1cccc[n+]1[O-])C(=O)NCC(=O)NCc1cc(Cl)ccc1CN (stereo not drawn),> 5
14,NCc1ccc(Cl)cc1CNC(=O)[C@H](CO)NC(=O)[C@@H](CCc1cccc[n+]1[O-])NS(=O)(=O)Cc1ccccc1,> 5
15,NCc1ccc(Cl)cc1CNC(=O)[C@@H]1CCCN1C(=O)[C@@H](CCc1cccc[n+]1[O-])NS(=O)(=O)Cc1ccccc1,> 5
16,O=C(CNC(=O)C(CCc1cccc[n+]1[O-])NS(=O)(=O)Cc1ccccc1)NCc1cc(Cl)ccc1Cl (stereo not drawn),> 5
17,COC(=O)Cc1ccc(CS(=O)(=O)NC(CCc2cccc[n+]2[O-])C(=O)NCC(=O)NCc2cc(Cl)ccc2CN)cc1 (stereo not drawn),> 5

# Target: Prothrombin (Homo sapiens, UniProt P00734)
# Assay: Inhibition of thrombin
row,SMILES,Ki [µM]
1,CCCCCCOC(=O)CN[C@H](CCc1cccc[n+]1[O-])C(=O)N1CCC[C@H]1C(=O)NCc1cc(Cl)ccc1CN,0.0078
2,NCc1ccc(Cl)cc1CNC(=O)[C@H](CCC(=O)O)NC(=O)C(CCc1cccc[n+]1[O-])NS(=O)(=O)Cc1ccccc1 (stereo partly drawn),20
3,C[C@H](NC(=O)[C@@H](CCc1cccc[n+]1[O-])NS(=O)(=O)Cc1ccccc1)C(=O)NCc1cc(Cl)ccc1CN,0.17
4,NCc1ccc(Cl)cc1CNC(=O)[C@H](CO)NC(=O)C(CCc1ccccn1)NS(=O)(=O)Cc1ccccc1 (stereo partly drawn),0.25
5,NCc1ccc(Cl)cc1CNC(=O)[C@@H]1CCCN1C(=O)[C@@H](CCc1cccc[n+]1[O-])NCC(=O)OC1CCCCC1,0.009
6,NCc1ccc(Cl)cc1CNC(=O)CNC(=O)C(CCc1cccc[n+]1[O-])NC(=O)CC(=O)O (stereo not drawn),140
7,O=C(CNC(=O)[C@@H](CCc1cccc[n+]1[O-])NS(=O)(=O)Cc1ccccc1)NCCc1ccncc1,> 1000
8,O=C(CNC(=O)[C@@H](CCc1cccc[n+]1[O-])NS(=O)(=O)Cc1ccccc1)NCc1cccc(Cl)c1,10
9,NCc1ccccc1CNC(=O)CNC(=O)C(CCc1cccc[n+]1[O-])NS(=O)(=O)Cc1ccccc1 (stereo not drawn),40
10,O=C(CNC(=O)C(CCc1cccc[n+]1[O-])NS(=O)(=O)Cc1ccccc1)NCc1ccc(Cl)s1 (stereo not drawn),190
11,O=C(CNC(=O)C(CCc1cccc[n+]1[O-])NS(=O)(=O)Cc1ccccc1)NCc1cccs1 (stereo not drawn),140
12,CC(C)OC(=O)CS(=O)(=O)NC(CCc1cccc[n+]1[O-])C(=O)NCC(=O)NCc1cc(Cl)ccc1CN (stereo not drawn),0.53
13,N=C(N)c1ccc(CNC(=O)CNC(=O)[C@@H](CCc2cccc[n+]2[O-])NS(=O)(=O)Cc2ccccc2)cc1,2.7
14,COC(=O)C(=O)NC(CCc1cccc[n+]1[O-])C(=O)NCC(=O)NCc1cc(Cl)ccc1CN (stereo not drawn),6.5
15,NCc1ccc(Cl)cc1CNC(=O)[C@@H]1CCCN1C(=O)[C@@H](CCc1cccc[n+]1[O-])NS(=O)(=O)Cc1ccccc1,0.00056
16,O=C(CNC(=O)C(CCc1cccc[n+]1[O-])NS(=O)(=O)Cc1ccccc1)NCc1cc(Cl)ccc1Cl (stereo not drawn),7.6
17,COC(=O)Cc1ccc(CS(=O)(=O)NC(CCc2cccc[n+]2[O-])C(=O)NCC(=O)NCc2cc(Cl)ccc2CN)cc1 (stereo not drawn),1.01
